Measurements taken from the supplement of paper PMC10307832.

Columns and labels:
Assay in all cases: relative viability (nuclei count vs DMSO), 5 days (fraction); higher = more cells survive
Crizotinib + Trametinib = compound: C[C@@H](Oc1cc(-c2cnn(C3CCNCC3)c2)cnc1N)c1c(Cl)ccc(F)c1Cl [Crizotinib] + CC(=O)Nc1cccc(-n2c(=O)n(C3CC3)c(=O)c3c(Nc4ccc(I)cc4F)n(C)c(=O)c(C)c32)c1 [Trametinib] (partner 0.02 µM)
How it was run: (§1)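 Relative viability divides the nuclei count in treated wells by that in vehicle wells. Lung cancer cell lines were seeded in 1536-well plates, dosed by pin tool the next day, and fixed and stained after 5 days in one step with final 0.05% Triton X-100, 1% formaldehyde and 1 ug/ml Hoechst. Dosing was a single drug or a fixed anchor-drug dose plus five library-drug doses (not always all listed) in √10 steps, and values are medians of duplicate plates imaged at 4×.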

Olaparib + Trametinib = compound: O=C(c1cc(Cc2n[nH]c(=O)c3ccccc23)ccc1F)N1CCN(C(=O)C2CC2)CC1 [Olaparib] + CC(=O)Nc1cccc(-n2c(=O)n(C3CC3)c(=O)c3c(Nc4ccc(I)cc4F)n(C)c(=O)c(C)c32)c1 [Trametinib] (partner 0.02 µM)
How it was run: as §1

Olaparib + Palbociclib = compound: O=C(c1cc(Cc2n[nH]c(=O)c3ccccc23)ccc1F)N1CCN(C(=O)C2CC2)CC1 [Olaparib] + CC(=O)c1c(C)c2cnc(Nc3ccc(N4CCNCC4)cn3)nc2n(C2CCCC2)c1=O [Palbociclib] (partner 0.5 µM)
How it was run: as §1

Crizotinib + Alpelisib = compound: C[C@@H](Oc1cc(-c2cnn(C3CCNCC3)c2)cnc1N)c1c(Cl)ccc(F)c1Cl [Crizotinib] + Cc1nc(NC(=O)N2CCC[C@H]2C(N)=O)sc1-c1ccnc(C(C)(C)C(F)(F)F)c1 [Alpelisib] (partner 2 µM)
How it was run: as §1

Cell Line | relative viability (Crizotinib + Trametinib; first compound 0.01 µM) | relative viability (Crizotinib + Trametinib; first compound 0.03162 µM) | relative viability (Crizotinib + Trametinib; first compound 0.1 µM) | relative viability (Crizotinib + Trametinib; first compound 0.3162 µM) | relative viability (Crizotinib + Trametinib; first compound 1 µM) | relative viability (Olaparib + Trametinib; first compound 0.08 µM) | relative viability (Olaparib + Trametinib; first compound 0.253 µM) | relative viability (Olaparib + Trametinib; first compound 2.53 µM) | relative viability (Olaparib + Trametinib; first compound 8 µM) | relative viability (Olaparib + Palbociclib; first compound 0.08 µM) | relative viability (Olaparib + Palbociclib; first compound 0.253 µM) | relative viability (Olaparib + Palbociclib; first compound 2.53 µM) | relative viability (Olaparib + Palbociclib; first compound 8 µM) | relative viability (Crizotinib + Alpelisib; first compound 0.01 µM) | relative viability (Crizotinib + Alpelisib; first compound 0.03162 µM) | relative viability (Crizotinib + Alpelisib; first compound 0.1 µM) | relative viability (Crizotinib + Alpelisib; first compound 0.3162 µM) | relative viability (Crizotinib + Alpelisib; first compound 1 µM)
HCC-78 | 0.631 | 0.873 | 0.723 | 0.706 | 0.909 | 0.861 | 0.647 | 0.716 | 0.707 | 0.414 | 0.424 | 0.486 | 0.464 | 0.278 | 0.292 | 0.299 | 0.279 | 0.223
HCC-366 | 0.342 | 0.388 | 0.367 |  | 0.322 | 0.311 | 0.311 | 0.268 | 0.214 | 0.39 | 0.263 | 0.26 | 0.168 | 0.547 | 0.485 | 0.382 |  | 0.343
HCC-827 | 0.462 | 0.567 | 0.53 | 0.508 | 0.552 | 0.52 | 0.508 | 0.498 | 0.478 | 0.534 | 0.494 | 0.474 | 0.387 | 0.896 | 0.944 | 0.938 | 0.859 | 
HOP-62 | 0.353 | 0.369 | 0.358 | 0.407 | 0.392 | 0.358 | 0.359 | 0.393 | 0.333 | 0.469 | 0.454 | 0.361 | 0.319 | 0.93 | 1 | 0.731 | 0.964 | 1.08
IA-LM |  |  |  |  |  |  |  |  |  |  |  |  |  | 0.726 | 0.814 | 0.805 | 0.737 | 0.675
LC-2-ad | 0.899 | 0.985 |  |  | 0.892 | 0.877 | 0.819 | 0.894 | 0.809 | 0.472 | 0.451 | 0.493 | 0.399 | 0.839 | 0.981 | 1.01 |  | 0.895
LCLC-97TM1 | 0.189 | 0.173 | 0.209 | 0.173 | 0.196 | 0.237 | 0.165 | 0.215 | 0.203 | 0.24 | 0.226 | 0.206 | 0.166 | 0.199 | 0.232 | 0.24 | 0.265 | 0.273
LCLC-103H | 0.644 | 0.646 | 0.662 | 0.686 | 0.642 | 0.669 | 0.689 | 0.679 | 0.652 | 0.524 | 0.455 | 0.513 | 0.494 | 0.917 | 0.98 | 1.05 | 1.13 | 1.01
LK-2 | 0.858 | 0.749 | 0.674 | 0.805 | 0.728 | 0.887 | 0.701 | 0.888 | 0.788 | 0.697 | 0.723 | 0.888 | 0.697 | 1.14 | 0.885 | 0.898 | 1.3 | 1.14
LOU-NH91 | 0.773 | 0.79 | 0.833 | 0.763 | 0.794 | 0.862 | 0.782 | 0.793 | 0.825 | 0.55 | 0.538 | 0.526 | 0.533 | 0.648 | 0.682 | 0.72 | 0.707 | 0.742
LU99A | 0.587 | 0.527 | 0.49 | 0.511 | 0.522 | 0.525 | 0.535 | 0.473 | 0.466 | 0.45 | 0.392 | 0.31 | 0.323 | 0.549 | 0.501 | 0.508 | 0.442 | 0.558
NCI-H522 | 0.619 | 0.689 | 0.799 | 0.703 | 0.8 | 0.679 | 0.733 | 0.711 | 0.715 | 1.14 | 0.859 | 0.87 | 0.889 |  |  |  |  | 
NCI-H596 | 0.834 | 0.845 | 0.82 | 0.888 | 0.819 | 0.789 | 0.719 | 0.82 | 0.637 |  |  |  |  | 0.396 | 0.528 | 0.509 | 0.564 | 0.481
NCI-H1299 |  |  |  |  |  |  |  |  |  |  |  |  |  | 1.12 | 1.03 | 0.999 | 1.13 | 1
NCI-H1563 |  |  |  |  |  |  |  |  |  |  |  |  |  | 0.85 | 0.838 | 1.03 | 0.938 | 0.782
NCI-H1648 |  | 0.462 | 0.539 | 0.483 | 0.463 | 0.455 | 0.513 |  | 0.418 | 0.236 | 0.305 |  | 0.246 |  |  |  |  | 
NCI-H1650 | 0.548 | 0.605 | 0.607 | 0.559 | 0.58 | 0.6 | 0.503 | 0.62 | 0.565 | 0.478 | 0.324 | 0.331 | 0.335 |  |  |  |  | 
NCI-H1703 |  |  |  |  |  |  |  |  |  |  |  |  |  | 0.285 | 0.299 | 0.329 | 0.364 | 0.366
NCI-H2342 | 0.818 | 0.896 | 0.78 | 0.868 | 0.829 | 0.8 | 0.871 | 0.802 | 0.742 | 0.532 | 0.503 | 0.471 | 0.474 |  |  |  |  | 
SW 900 | 0.907 | 0.9 | 0.752 | 0.938 | 0.614 | 0.867 | 0.758 | 0.85 | 0.815 | 0.606 | 0.492 | 0.595 | 0.476 |  |  |  |  | 
